# Article PMC9403976, “Elucidating the path to Plasmodium prolyl-tRNA synthetase inhibitors that overcome halofuginone resistance” (Nature Communications, 2022)
# Where “and” joins values, the source holds several entries; their conditions need not be identical. Equal entries are not always repeated. Where two headings read alike, the source gives them in different places.
# Tests used:
# P. falciparum Dd2-2D4 = test: P. falciparum asexual blood stage (ABS) growth assay, SYBR Green, 72 h, wild-type parasites; type: cell-based, Plasmodium falciparum; conditions: Plasmodium falciparum, DD2; SI Fig 16b; values on -log scale; read-out: ABS - Dd2-2D4 (converted)
# PfcProRS = target: T1, PfcProRS (Plasmodium falciparum, UniProt Q8I5R7); type: binding; conditions: for dose-response signal (normalized), SI Fig 8: single replicates
# T1 construct: made in house; host or cells: E. coli SoluBL-21
# T1 sequence (Q8I5R7 249-746): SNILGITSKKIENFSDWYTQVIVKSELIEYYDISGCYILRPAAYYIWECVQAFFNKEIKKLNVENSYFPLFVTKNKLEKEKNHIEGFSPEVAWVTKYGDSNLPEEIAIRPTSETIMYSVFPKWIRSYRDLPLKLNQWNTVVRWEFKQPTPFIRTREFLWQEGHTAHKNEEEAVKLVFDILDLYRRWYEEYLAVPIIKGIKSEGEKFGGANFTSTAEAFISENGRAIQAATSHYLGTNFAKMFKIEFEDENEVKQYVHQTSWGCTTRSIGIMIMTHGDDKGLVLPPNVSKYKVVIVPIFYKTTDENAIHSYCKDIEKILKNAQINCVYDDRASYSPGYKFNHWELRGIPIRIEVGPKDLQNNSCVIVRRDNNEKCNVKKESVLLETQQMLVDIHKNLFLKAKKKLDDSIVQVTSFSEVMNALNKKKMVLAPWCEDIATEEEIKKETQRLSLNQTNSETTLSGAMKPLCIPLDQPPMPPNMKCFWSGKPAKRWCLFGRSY
# HsProRS = HsProRS (Homo sapiens, UniProt P07814); test: TR-FRET ligand displacement assay with tracer MAT379 (CoraFluor-1-Halo and anti-His6 antibody formats); type: binding; parameters: made in house; host or cells: E. coli SoluBL-21; conditions: for TR-FRET dose-response, normalized signal (SI Fig 11): individual replicates
# HsProRS, sequence (P07814 996-1512): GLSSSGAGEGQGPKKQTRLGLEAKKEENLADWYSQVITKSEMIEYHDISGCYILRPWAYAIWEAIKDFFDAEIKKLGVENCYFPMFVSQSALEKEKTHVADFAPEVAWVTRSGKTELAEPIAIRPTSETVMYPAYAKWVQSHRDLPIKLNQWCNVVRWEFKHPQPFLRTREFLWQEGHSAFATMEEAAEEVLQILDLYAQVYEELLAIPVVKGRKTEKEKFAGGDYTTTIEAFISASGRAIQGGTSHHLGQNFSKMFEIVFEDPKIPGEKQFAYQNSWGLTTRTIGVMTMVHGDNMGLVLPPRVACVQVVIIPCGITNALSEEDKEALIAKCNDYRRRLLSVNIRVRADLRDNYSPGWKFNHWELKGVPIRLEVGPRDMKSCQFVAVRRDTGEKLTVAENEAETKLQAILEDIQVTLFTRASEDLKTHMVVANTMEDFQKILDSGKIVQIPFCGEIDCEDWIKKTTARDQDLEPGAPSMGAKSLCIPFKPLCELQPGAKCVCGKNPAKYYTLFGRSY
smiles,measurement,setting,value
O=C(NC1Cc2ccccc2C1)c1nccnc1NC(=O)N1CCC(CCO)CC1 [compound 12],EC50,P. falciparum Dd2-2D4,153 nM
same,"dose-response signal (normalized), SI Fig 8",PfcProRS; Log[inhibitor] (M) -5.000,1.96E-01 and 6.39E-02 and 9.88E-02
same,"dose-response signal (normalized), SI Fig 8",PfcProRS; Log[inhibitor] (M) -5.301,1.70E-01 and 1.45E-01 and 2.26E-01
same,"dose-response signal (normalized), SI Fig 8",PfcProRS; Log[inhibitor] (M) -5.601,3.61E-01 and 2.68E-01 and 3.67E-01
same,"dose-response signal (normalized), SI Fig 8",PfcProRS; Log[inhibitor] (M) -5.904,5.30E-01 and 5.32E-01 and 5.86E-01
same,"dose-response signal (normalized), SI Fig 8",PfcProRS; Log[inhibitor] (M) -6.208,7.40E-01 and 8.32E-01 and 8.18E-01
same,"dose-response signal (normalized), SI Fig 8",PfcProRS; Log[inhibitor] (M) -6.509,9.11E-01 and 8.45E-01 and 9.67E-01
same,"dose-response signal (normalized), SI Fig 8",PfcProRS; Log[inhibitor] (M) -6.796,1.07E+00 and 9.35E-01 and 8.42E-01
same,"dose-response signal (normalized), SI Fig 8",PfcProRS; Log[inhibitor] (M) -7.108,1.04E+00 and 9.91E-01 and 9.07E-01
same,"dose-response signal (normalized), SI Fig 8",PfcProRS; Log[inhibitor] (M) -7.409,1.05E+00 and 1.07E+00 and 9.30E-01
same,"dose-response signal (normalized), SI Fig 8",PfcProRS; Log[inhibitor] (M) -7.710,9.50E-01 and 9.05E-01 and 1.01E+00
same,"dose-response signal (normalized), SI Fig 8",PfcProRS; Log[inhibitor] (M) -8.000,1.00E+00 and 9.33E-01 and 9.19E-01
same,"dose-response signal (normalized), SI Fig 8",PfcProRS; Log[inhibitor] (M) -8.301,1.00E+00 and 9.74E-01 and 1.08E+00
same,"dose-response signal (normalized), SI Fig 8",PfcProRS; Log[inhibitor] (M) -8.602,9.86E-01 and 9.74E-01 and 9.65E-01
same,"dose-response signal (normalized), SI Fig 8",PfcProRS; Log[inhibitor] (M) -9.000,9.41E-01 and 9.53E-01 and 9.73E-01
same,"dose-response signal (normalized), SI Fig 8",PfcProRS; Log[inhibitor] (M) -9.301,9.78E-01 and 8.31E-01 and 1.01E+00
same,PfcProRS -- best Kd,"PfcProRS; SI Fig 16a, values on -log scale",6.470
same,Kd,"HsProRS; HsProRS (KD [nM]) mean, no added proline/ATP (-)",687 nM
same,Kd,"HsProRS; HsProRS - best Kd, SI Fig 16a, values on -log scale",150 nM
same,"normalized TR-FRET ligand displacement signal, dose-response replicates (SI Fig 6)",HsProRS; Log[inhibitor] (M) -5.000,1.59E-01 and 1.60E-01 and 2.09E-01
same,"TR-FRET dose-response, normalized signal (SI Fig 11)",HsProRS; Log[inhibitor] (M) -5.000,3.68E-02 (2×) and 3.81E-02
same,"normalized TR-FRET ligand displacement signal, dose-response replicates (SI Fig 6)",HsProRS; Log[inhibitor] (M) -5.301,3.23E-01 and 2.51E-01 and 1.66E-01
same,"TR-FRET dose-response, normalized signal (SI Fig 11)",HsProRS; Log[inhibitor] (M) -5.301,1.17E-01 and 1.16E-01 and 1.37E-01
same,"normalized TR-FRET ligand displacement signal, dose-response replicates (SI Fig 6)",HsProRS; Log[inhibitor] (M) -5.601,4.15E-01 (2×) and 3.76E-01
same,"TR-FRET dose-response, normalized signal (SI Fig 11)",HsProRS; Log[inhibitor] (M) -5.601,3.29E-01 and 2.78E-01 and 2.37E-01
same,"normalized TR-FRET ligand displacement signal, dose-response replicates (SI Fig 6)",HsProRS; Log[inhibitor] (M) -5.904,6.44E-01 and 5.20E-01 and 5.13E-01
same,"TR-FRET dose-response, normalized signal (SI Fig 11)",HsProRS; Log[inhibitor] (M) -5.904,4.76E-01 and 4.29E-01 and 4.93E-01
same,"normalized TR-FRET ligand displacement signal, dose-response replicates (SI Fig 6)",HsProRS; Log[inhibitor] (M) -6.208,7.49E-01 and 7.87E-01 and 7.20E-01
same,"TR-FRET dose-response, normalized signal (SI Fig 11)",HsProRS; Log[inhibitor] (M) -6.208,5.93E-01 and 6.01E-01 and 5.70E-01
same,"normalized TR-FRET ligand displacement signal, dose-response replicates (SI Fig 6)",HsProRS; Log[inhibitor] (M) -6.509,9.12E-01 and 8.62E-01 and 8.67E-01
same,"TR-FRET dose-response, normalized signal (SI Fig 11)",HsProRS; Log[inhibitor] (M) -6.509,7.07E-01 and 6.82E-01 and 7.18E-01
same,"normalized TR-FRET ligand displacement signal, dose-response replicates (SI Fig 6)",HsProRS; Log[inhibitor] (M) -6.796,1.06E+00 and 1.12E+00 and 9.20E-01
same,"TR-FRET dose-response, normalized signal (SI Fig 11)",HsProRS; Log[inhibitor] (M) -6.796,7.97E-01 and 7.75E-01 and 7.79E-01
same,"normalized TR-FRET ligand displacement signal, dose-response replicates (SI Fig 6)",HsProRS; Log[inhibitor] (M) -7.108,1.07E+00 and 1.02E+00 and 1.12E+00
same,"TR-FRET dose-response, normalized signal (SI Fig 11)",HsProRS; Log[inhibitor] (M) -7.108,8.56E-01 and 8.75E-01 and 8.83E-01
same,"normalized TR-FRET ligand displacement signal, dose-response replicates (SI Fig 6)",HsProRS; Log[inhibitor] (M) -7.409,1.02E+00 and 1.06E+00 (2×)
same,"TR-FRET dose-response, normalized signal (SI Fig 11)",HsProRS; Log[inhibitor] (M) -7.409,8.85E-01 and 8.47E-01 and 8.63E-01
same,"normalized TR-FRET ligand displacement signal, dose-response replicates (SI Fig 6)",HsProRS; Log[inhibitor] (M) -7.710,9.85E-01 and 1.01E+00 and 9.72E-01
same,"TR-FRET dose-response, normalized signal (SI Fig 11)",HsProRS; Log[inhibitor] (M) -7.710,8.80E-01 and 8.88E-01 and 8.59E-01
same,"normalized TR-FRET ligand displacement signal, dose-response replicates (SI Fig 6)",HsProRS; Log[inhibitor] (M) -8.000,9.44E-01 and 9.64E-01 and 9.22E-01
same,"TR-FRET dose-response, normalized signal (SI Fig 11)",HsProRS; Log[inhibitor] (M) -8.000,9.20E-01 and 9.38E-01 and 9.24E-01
same,"normalized TR-FRET ligand displacement signal, dose-response replicates (SI Fig 6)",HsProRS; Log[inhibitor] (M) -8.301,9.32E-01 and 1.05E+00 and 8.26E-01
same,"TR-FRET dose-response, normalized signal (SI Fig 11)",HsProRS; Log[inhibitor] (M) -8.301,8.82E-01 and 8.99E-01 and 9.20E-01
same,"normalized TR-FRET ligand displacement signal, dose-response replicates (SI Fig 6)",HsProRS; Log[inhibitor] (M) -8.602,1.02E+00 and 1.07E+00 and 9.72E-01
same,"TR-FRET dose-response, normalized signal (SI Fig 11)",HsProRS; Log[inhibitor] (M) -8.602,9.41E-01 and 8.91E-01 and 9.25E-01
same,"normalized TR-FRET ligand displacement signal, dose-response replicates (SI Fig 6)",HsProRS; Log[inhibitor] (M) -9.000,9.71E-01 and 8.87E-01 and 1.00E+00
same,"TR-FRET dose-response, normalized signal (SI Fig 11)",HsProRS; Log[inhibitor] (M) -9.000,9.29E-01 and 9.20E-01 and 9.52E-01
same,"normalized TR-FRET ligand displacement signal, dose-response replicates (SI Fig 6)",HsProRS; Log[inhibitor] (M) -9.301,1.06E+00 and 9.50E-01 and 9.98E-01
same,"TR-FRET dose-response, normalized signal (SI Fig 11)",HsProRS; Log[inhibitor] (M) -9.301,9.00E-01 and 9.10E-01 and 9.03E-01
